#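 Each compound was tested at five concentrations against cells in 96-well plates for 48 hours. GI50: concentration for 50% inhibition of growth. TGI: total growth inhibition.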
# Columns and labels:
# Test in all cases: growth of human tumour cells (NCI), 48 h
# MDA-MB-435 = test system: MDA-MB-435
# EKVX NSCLC = test system: EKVX NSCLC
# HL-60(TB) leukemia = test system: HL-60(TB) leukemia
# DU-145 prostate = test system: DU-145 prostate
# ACHN renal = test system: ACHN renal
# SNB-19 CNS = test system: SNB-19 CNS
# NCI-H460 lung = test system: NCI-H460 lung
# SF-295 CNS = test system: SF-295 CNS
# CCRF-CEM leukemia = test system: CCRF-CEM leukemia
# K-562 leukemia = test system: K-562 leukemia
# HOP-62 NSCLC = test system: HOP-62 NSCLC
# UO-31 renal = test system: UO-31 renal
# MALME-3M melanoma = test system: MALME-3M melanoma
# A498 renal = test system: A498 renal
# BT-549 breast = test system: BT-549 breast
# MDA-MB-231 breast = test system: MDA-MB-231 breast
# OVCAR-3 ovarian = test system: OVCAR-3 ovarian
# SK-MEL-5 melanoma = test system: SK-MEL-5 melanoma
# RPMI-8226 leukemia = test system: RPMI-8226 leukemia
# HOP-92 NSCLC = test system: HOP-92 NSCLC
# OVCAR-8 ovarian = test system: OVCAR-8 ovarian
# KM12 colon = test system: KM12 colon
# HT29 colon = test system: HT29 colon
# SR leukemia = test system: SR leukemia
# NCI-H226 lung = test system: NCI-H226 lung
# NCI-H522 lung = test system: NCI-H522 lung
# HCT-116 colon = test system: HCT-116 colon
# A549 NSCLC = test system: A549 NSCLC
# PC-3 prostate = test system: PC-3 prostate
# HCC-2998 colon = test system: HCC-2998 colon
# SF-268 CNS = test system: SF-268 CNS
# SN12C renal = test system: SN12C renal
# HS 578T breast = test system: HS 578T breast
# 786-0 renal = test system: 786-0 renal
# SK-MEL-2 melanoma = test system: SK-MEL-2 melanoma
# RXF 393 renal = test system: RXF 393 renal
# IGROV1 ovarian = test system: IGROV1 ovarian
# OVCAR-4 ovarian = test system: OVCAR-4 ovarian
# SNB-75 CNS = test system: SNB-75 CNS
# COLO 205 colon = test system: COLO 205 colon
# NCI-H23 lung = test system: NCI-H23 lung
# HCT-15 colon = test system: HCT-15 colon
# LOX IMVI melanoma = test system: LOX IMVI melanoma
# TK-10 renal = test system: TK-10 renal
# M14 melanoma = test system: M14 melanoma
# CAKI-1 renal = test system: CAKI-1 renal
# MOLT-4 leukemia = test system: MOLT-4 leukemia
# SK-OV-3 ovarian = test system: SK-OV-3 ovarian
# UACC-62 melanoma = test system: UACC-62 melanoma
# NCI/ADR-RES ovarian = test system: NCI/ADR-RES ovarian
# U251 CNS = test system: U251 CNS
# SF-539 CNS = test system: SF-539 CNS
# T-47D breast = test system: T-47D breast
# OVCAR-5 ovarian = test system: OVCAR-5 ovarian
# SK-MEL-28 melanoma = test system: SK-MEL-28 melanoma
# UACC-257 melanoma = test system: UACC-257 melanoma
# SW-620 colon = test system: SW-620 colon
# MCF7 breast = test system: MCF7 breast
structure (smiles),measurement,setting,value
CN(Cc1cccc(F)c1)c1ccc(CO)c(Cl)c1,GI50,MDA-MB-435,15.7 µM
same,TGI,MDA-MB-435,57.6 µM
same,GI50,EKVX NSCLC,27.2 µM
same,TGI,EKVX NSCLC,> 100 µM
same,GI50,HL-60(TB) leukemia,22 µM
same,TGI,HL-60(TB) leukemia,> 77.2 µM
same,GI50,DU-145 prostate,29.7 µM
same,TGI,DU-145 prostate,> 100 µM
same,GI50,ACHN renal,37.3 µM
same,TGI,ACHN renal,> 100 µM
same,GI50,SNB-19 CNS,32.8 µM
same,TGI,SNB-19 CNS,> 100 µM
same,GI50,NCI-H460 lung,1280 nM
same,TGI,NCI-H460 lung,13.5 µM
same,GI50,SF-295 CNS,3.6 µM
same,TGI,SF-295 CNS,> 100 µM
same,GI50,CCRF-CEM leukemia,31.1 µM
same,TGI,CCRF-CEM leukemia,> 100 µM
same,GI50,K-562 leukemia,8.99 µM
same,TGI,K-562 leukemia,> 100 µM
same,GI50,HOP-62 NSCLC,4.84 µM
same,TGI,HOP-62 NSCLC,47.8 µM
same,GI50,UO-31 renal,10.3 µM
same,TGI,UO-31 renal,75.5 µM
same,GI50,MALME-3M melanoma,27.5 µM
same,TGI,MALME-3M melanoma,> 88.9 µM
same,GI50,A498 renal,57 nM
same,TGI,A498 renal,189 nM
same,GI50,BT-549 breast,17.9 µM
same,TGI,BT-549 breast,60.9 µM
same,GI50,MDA-MB-231 breast,24.7 µM
same,TGI,MDA-MB-231 breast,> 100 µM
same,GI50,OVCAR-3 ovarian,3.08 µM
same,TGI,OVCAR-3 ovarian,15 µM
same,GI50,SK-MEL-5 melanoma,11 µM
same,TGI,SK-MEL-5 melanoma,23.3 µM
same,GI50,RPMI-8226 leukemia,13.3 µM
same,TGI,RPMI-8226 leukemia,> 68.3 µM
same,GI50,HOP-92 NSCLC,3.37 µM
same,TGI,HOP-92 NSCLC,28.1 µM
same,GI50,OVCAR-8 ovarian,20.3 µM
same,TGI,OVCAR-8 ovarian,> 100 µM
same,GI50,KM12 colon,20.5 µM
same,TGI,KM12 colon,79.6 µM
same,GI50,HT29 colon,7.02 µM
same,TGI,HT29 colon,59.7 µM
same,GI50,SR leukemia,24.4 µM
same,TGI,SR leukemia,> 88.6 µM
same,GI50,NCI-H226 lung,123 nM
same,TGI,NCI-H226 lung,275 nM
same,GI50,NCI-H522 lung,24.1 µM
same,TGI,NCI-H522 lung,75.5 µM
same,GI50,HCT-116 colon,392 nM
same,TGI,HCT-116 colon,13.7 µM
same,GI50,A549 NSCLC,4.91 µM
same,TGI,A549 NSCLC,37 µM
same,GI50,PC-3 prostate,23.7 µM
same,TGI,PC-3 prostate,98.8 µM
same,GI50,HCC-2998 colon,13.2 µM
same,TGI,HCC-2998 colon,42.5 µM
same,GI50,SF-268 CNS,34.4 µM
same,TGI,SF-268 CNS,> 100 µM
same,GI50,SN12C renal,22.3 µM
same,TGI,SN12C renal,> 100 µM
same,GI50,HS 578T breast,25 µM
same,TGI,HS 578T breast,> 100 µM
same,GI50,786-0 renal,13 µM
same,TGI,786-0 renal,41.2 µM
same,GI50,SK-MEL-2 melanoma,8.39 µM
same,TGI,SK-MEL-2 melanoma,33.7 µM
same,GI50,RXF 393 renal,8.72 µM
same,TGI,RXF 393 renal,41.7 µM
same,GI50,IGROV1 ovarian,361 nM
same,TGI,IGROV1 ovarian,3.05 µM
same,GI50,OVCAR-4 ovarian,1610 nM
same,TGI,OVCAR-4 ovarian,17 µM
same,GI50,SNB-75 CNS,14.4 µM
same,TGI,SNB-75 CNS,51.6 µM
same,GI50,COLO 205 colon,5.46 µM
same,TGI,COLO 205 colon,19.3 µM
same,GI50,NCI-H23 lung,13.3 µM
same,TGI,NCI-H23 lung,> 92.6 µM
same,GI50,HCT-15 colon,17.7 µM
same,TGI,HCT-15 colon,> 83.2 µM
same,GI50,LOX IMVI melanoma,23.5 µM
same,TGI,LOX IMVI melanoma,75.9 µM
same,GI50,TK-10 renal,186 nM
same,TGI,TK-10 renal,851 nM
same,GI50,M14 melanoma,20.4 µM
same,TGI,M14 melanoma,83 µM
same,GI50,CAKI-1 renal,3.05 µM
same,TGI,CAKI-1 renal,> 61.3 µM
same,GI50,MOLT-4 leukemia,29 µM
same,TGI,MOLT-4 leukemia,> 83.5 µM
same,GI50,SK-OV-3 ovarian,11.4 µM
same,TGI,SK-OV-3 ovarian,50.4 µM
same,GI50,UACC-62 melanoma,288 nM
same,TGI,UACC-62 melanoma,2420 nM
same,GI50,NCI/ADR-RES ovarian,17.5 µM
same,TGI,NCI/ADR-RES ovarian,58 µM
same,GI50,U251 CNS,4.57 µM
same,TGI,U251 CNS,30.6 µM
same,GI50,SF-539 CNS,33.2 µM
same,TGI,SF-539 CNS,> 100 µM
same,GI50,T-47D breast,548 nM
same,TGI,T-47D breast,3.92 µM
same,GI50,OVCAR-5 ovarian,410 nM
same,TGI,OVCAR-5 ovarian,2610 nM
same,GI50,SK-MEL-28 melanoma,20.7 µM
same,TGI,SK-MEL-28 melanoma,> 100 µM
same,GI50,UACC-257 melanoma,304 nM
same,TGI,UACC-257 melanoma,1330 nM
same,GI50,SW-620 colon,5.13 µM
same,TGI,SW-620 colon,> 100 µM
same,GI50,MCF7 breast,1030 nM
same,TGI,MCF7 breast,26.3 µM
